Measured values reported in patent publication US10772882B2, “Pulmonary hypertension preventative or therapeutic agent containing crude drug” (TOHOKU UNIVERSITY, priority 2016, dated 2020).

Key:
[1] = test system: transcription factor NF-κB; conditions: Non-patent Literature 4 and 5; cited from earlier work
[2] = test system: pulmonary artery smooth muscle cells; conditions: Non-patent Literature 5; cited from earlier work
[3] = test system: pulmonary artery smooth muscles derived from patients with pulmonary arterial hypertension; assay: MTT assay of cell proliferation of pulmonary artery smooth muscle cells from patients; assay type: cell-based, human; conditions: for suppressive effect on proliferation of pulmonary artery smooth muscle cells: final concentration 5 μM, same method as Example 1, data not shown
From the text: The preventive or therapeutic agent for pulmonary hypertension of the present invention prevents or treats and ameliorates pulmonary hypertension by at least suppressing excessive proliferation of pulmonary artery smooth muscle cells. Accordingly, the present invention also provides a suppressor for excessive proliferation of pulmonary artery smooth muscle cells containing emetine or a salt thereof. […] However, emetine serving as the active ingredient of the present invention is a compound quite different in structure from IMD-0354 described above. Further, the inventors of the present invention examined N-p-tosyl-L-phenylalanine chloromethyl ketone, caffeic acid phenethyl ester, and Nα-p-tosyl-L-lysine chloromethyl ketone hydrochloride serving as compounds known to have NF-κB-inhibiting actions for their suppressive effects on the proliferation of pulmonary artery smooth muscle cells derived from patients with pulmonary hypertension by the same method as that described in Example 1 to be described later except that each of these compounds was added so that its final concentration was 5 μM. […] Also from such viewpoints, the suppressive effect of emetine on excessive proliferation of pulmonary artery smooth muscle cells and the preventive or therapeutic effect of emetine on pulmonary hypertension in the present invention are unpredictable from the related art. The active ingredient, dosage form, dose, and the like of the suppressor for excessive proliferation of pulmonary artery smooth muscle cells are the same as those of the preventive or therapeutic agent for pulmonary hypertension.
Pulmonary artery smooth muscles derived from patients with pulmonary arterial hypertension were treated with 1 nmol/L to 5 μmol/L emetine solutions (the emetine solutions were prepared with distilled water), and were cultured for 0 hours and 48 hours, followed by an MTT assay to assess cell proliferation rates. Specifically, smooth muscle cells were seeded in 96-well plates at 5,000 cells/well, and 24 hours after the seeding, emetine was added so that its final concentrations were adjusted to from 1 nmol/L to 5 μmol/L. The results are shown in FIG. 1.

[4] = test system: monocrotaline-induced pulmonary hypertension model; assay: monocrotaline-induced pulmonary hypertension model; assay type: in vivo, rats (SD rats); conditions: 0.01 mg/kg or 0.05 mg/kg orally daily for 3 weeks after 60 mg/kg monocrotaline s.c.; vs control group; FIG. 2
Protocol: In vivo tests using pulmonary hypertension animal models were performed on emetine. Specifically, first, the influence of emetine on a monocrotaline-induced pulmonary hypertension model was investigated. A monocrotaline solution used for the production of the pulmonary hypertension model was prepared by dissolving monocrotaline with 1 mol/L hydrochloric acid and then adjusting the pH to 7.4 through titration with 1 mol/L sodium hydroxide using a pH meter. An emetine solution was prepared with distilled water. The monocrotaline-induced pulmonary hypertension model was produced by subcutaneously injecting 6-week-old rats (SD rats, n=13) with 60 mg/kg monocrotaline. After the subcutaneous injection with monocrotaline, the rats were orally administered 0.01 mg/kg or 0.05 mg/kg emetine daily for 3 weeks. A vehicle group was sacrificed 3 weeks after the administration of distilled water to measure right ventricular systolic pressure with Mikro-Tip Catheter transducers 2F (Millar). In addition, after formalin fixation, the right ventricle was removed from the left ventricle to measure a right ventricle/(left ventricle plus septum) weight ratio. Then, the extent of pulmonary hypertension was assessed on the basis of those results.

SU5416/Hypoxia model = assay: SU5416/Hypoxia pulmonary hypertension model; assay type: in vivo, rats (SD rats); conditions: 0.01 mg/kg or 0.05 mg/kg orally daily, week 8 to week 11 after SU5416; vs control group; FIG. 3
Protocol: In addition, an in vivo test using an SU5416/Hypoxia model was also performed. Specifically, first, an SU5416 (semaxanib) solution used for the production of the model was prepared by dissolving SU5416 using carboxy methyl cellulose (CMC). An emetine solution was prepared in the same manner as described above.
Six-week-old rats (SD rats, n=9) were administered 20 mg/kg SU5416 and then bred in a hypoxic chamber using a hypoxicator to be exposed to hypoxia (oxygen concentration: from 8% to 12%) for 3 weeks and then to normoxia. Then, the rats were orally administered 0.01 mg/kg or 0.05 mg/kg emetine daily for a period from the first day of week 8 after the SU5416 administration to the final day of week 11, and were sacrificed on the final day of week 11. Then, the extent of pulmonary hypertension was assessed in the same manner as in the monocrotaline-induced pulmonary hypertension model.

For `O=C(Nc1cc(C(F)(F)F)cc(C(F)(F)F)c1)c1cc(Cl)ccc1O` [IMD-0354, N-[3,5-bis(trifluoromethyl)phenyl]-5-chloro-2-hydroxybenzamide], the NF-κB inhibition [1] is given as “has an NF-κB-inhibiting action” and the “proliferation of pulmonary artery smooth muscle cells” value [2] is given as “suppresses the proliferation of pulmonary artery smooth muscle cells”.

For `Cc1ccc(S(=O)(=O)N[C@@H](Cc2ccccc2)C(=O)CCl)cc1` [N-p-tosyl-L-phenylalanine chloromethyl ketone], the “suppressive effect on proliferation of pulmonary artery smooth muscle cells” value (from here on “suppressive effect on proliferation”) [3] was “not sufficiently suppressed”.

For `Cc1ccc(S(=O)(=O)N[C@@H](CCCCN)C(=O)CCl)cc1.Cl` [Nα-p-tosyl-L-lysine chloromethyl ketone hydrochloride], the “suppressive effect on proliferation” value [3] was “not sufficiently suppressed”.

With `O=C(/C=C/c1ccc(O)c(O)c1)OCCc1ccccc1` [caffeic acid phenethyl ester] the “suppressive effect on proliferation” value [3] was “not sufficiently suppressed”.

For `CC[C@H]1CN2CCc3cc(OC)c(OC)cc3[C@@H]2C[C@@H]1C[C@H]1NCCc2cc(OC)c(OC)cc21` [emetine], the “right ventricle/(left ventricle plus septum) weight ratio” value [4] was “suppressed”, the “right ventricular systolic pressure” value [4] was “suppressed” and the “right ventricle/(left ventricle plus septum) weight ratio” value (SU5416/Hypoxia model) was “alleviated”. For the same molecule, the “right ventricular systolic pressure” value (SU5416/Hypoxia model) was “alleviated”, the “cell proliferation rate (MTT assay)” value ([3]; emetine 1 nmol/L to 5 μmol/L, cultured 48 hours, FIG. 1) was “suppressed proliferation of the pulmonary artery smooth muscles derived from patients with pulmonary arterial hypertension in a concentration-dependent manner” and the NF-κB inhibition [1] was “known to inhibit a transcription factor NF-κB”.
